Experimental data: ChEMBL document CHEMBL4376816, “Discovery of the Oral Leukotriene C4 Synthase Inhibitor (1S,2S)-2-({5-[(5-Chloro-2,4-difluorophenyl)(2-fluoro-2-methylpropyl)amino]-3-methoxypyrazin-2-yl}carbonyl)cyclopropanecarboxylic Acid (AZD9898) as a New Treatment for Asthma” (J Med Chem, 2019)
Activity calls are given as the source filed them. No cut-off for these calls is given here.

How the values were obtained:
[1] = Octanol/Sodium phosphate buffer partition coefficient, log D of compound at pH 7.4 at 1 mg incubated for overnight under shaking condition by LC-MS/MS analysis; type: physicochemical
[2] = Intrinsic clearance in human hepatocytes at 1 uM assessed as per million cells after 2 to 60 mins by LC-MS/MS analysis; type: ADME, cell-based, Hepatocyte; settings: read-out: CLH
[3] = Displacement of [3H]-GABA/[3]-muscimol from GABA gated chloride channel in Sprague-Dawley rat cortical synoptic membranes by liquid scintillation analysis
[4] = molecular target: T1, Leukotriene C4 synthase (Homo sapiens, UniProt Q16873)
T1 sequence (Q16873 whole entry): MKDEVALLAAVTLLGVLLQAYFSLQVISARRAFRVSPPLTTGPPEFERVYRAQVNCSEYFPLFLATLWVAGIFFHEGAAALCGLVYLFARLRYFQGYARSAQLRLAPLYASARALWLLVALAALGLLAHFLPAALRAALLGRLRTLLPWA

[5] = molecular target: T1, Leukotriene C4 synthase; remark: listed apart in the source
[6] = molecular target: T2, Leukotriene C4 synthase (Homo sapiens) (UniProt Q16873)
T2 sequence (whole entry): T1 sequence (Q16873 whole entry)

[7] = molecular target: T2, Leukotriene C4 synthase (Homo sapiens); assay: Inhibition of LTC4S in healthy human whole blood assessed as inhibition of calcium ionophore A23187 stimulated cysteinyl leukotrienes production preincuabted for 30 mins followed by calcium ionophore stimulation and measured after 10 mins by LC-MS analysis; type: tissue-based
[8] = molecular target: T2, Leukotriene C4 synthase (Homo sapiens); assay: Inhibition of LTC4S in asthmatic human whole blood assessed as inhibition of calcium ionophore A23187 stimulated cysteinyl leukotrienes production preincuabted for 30 mins followed by calcium ionophore stimulation and measured after 10 mins by LC-MS analysis; type: tissue-based

| logD [1] | hepatocyte CLint at 1 µM [2] [µL/min/1e6 cells] | IC50 [3] [µM] | Structure (SMILES) | further results |
| --- | --- | --- | --- | --- |
| 1.1 |  |  | COc1cc(N(CC(F)(F)F)c2cccc(C(F)(F)F)c2)cnc1C(=O)[C@H]1C[C@@H]1C(=O)O |  |
| 1.4 | 2.3 | 11 | COc1cc(N(CC2CC2)c2cccc(C(F)(F)F)c2)cnc1C(=O)[C@H]1C[C@@H]1C(=O)O |  |
| 2 | 2.9 |  | COc1nc(N(CC(C)C)c2cc(C(F)(F)F)ccc2F)cnc1C(=O)[C@H]1C[C@@H]1C(=O)O | IC50 [4]: 0.00036 µM; IC50 [5]: 0.0035 µM |
| 1.2 | 3.1 | 3 | COc1cc(N(CC2CC2)c2ccc(F)c(Cl)c2)cnc1C(=O)[C@H]1C[C@@H]1C(=O)O |  |
| 0.9 | < 1.5 | 54 | COc1cc(N(CC(C)(C)F)c2cccc(C(F)(F)F)c2)cnc1C(=O)[C@H]1C[C@@H]1C(=O)O |  |
|  |  |  | COc1nc(C(=O)[C@H]2C[C@@H]2C(=O)O)ncc1N(CC1CC1)c1cccc2ccccc12 | IC50 [4]: 0.0024 µM |
| 0.8 | < 1 |  | COc1cc(N(CC(C)(C)F)c2cc(C(F)(F)F)ccc2F)cnc1C(=O)[C@H]1C[C@@H]1C(=O)O |  |
| 0.65 | 3 |  | COc1cc(N(CC2CC2)c2ccccc2)cnc1C(=O)[C@H]1C[C@@H]1C(=O)O |  |
| 2.9 | 15 |  | COc1nc(C(=O)[C@@H]2C[C@H]2C(=O)O)ncc1N(CC1CC1)c1ccc(Cl)c2ccccc12 (relative stereo) | IC50 [4]: 0.0155 µM |
| 1.8 | 7.6 | 3.5 | CCCN(c1cnc(C(=O)[C@H]2C[C@@H]2C(=O)O)c(OC)c1)c1ccc(F)c2ccccc12 |  |
| 1.6 | 2.9 |  | COc1cc(N(CC(C)C)c2cccc(C(F)(F)F)c2)cnc1C(=O)[C@H]1C[C@@H]1C(=O)O |  |
| 1.3 | 1.8 |  | COc1cc(N(CC2CC2)c2ccc(Cl)cc2)cnc1C(=O)[C@@H]1C[C@H]1C(=O)O (relative stereo) |  |
| 2.2 | 56 |  | COc1cc(N(CC(C)C)c2ccc(F)c3ccccc23)cnc1C(=O)[C@H]1C[C@@H]1C(=O)O |  |
| 1.1 | < 1.5 | 5.4 | COc1cc(N(CC2CC2)c2cc(Cl)c(F)cc2F)cnc1C(=O)[C@H]1C[C@@H]1C(=O)O |  |
| 1.9 | 5.4 | 0.64 | COc1cc(N(CC2CC2)c2ccc(F)c3ccccc23)cnc1C(=O)[C@H]1C[C@@H]1C(=O)O |  |
| 1.2 | 7.2 | 19 | CCCN(c1cccc(C(F)(F)F)c1)c1cnc(C(=O)[C@H]2C[C@@H]2C(=O)O)c(OC)c1 |  |
|  |  |  | O=C(Nc1ccc(Cc2ccc(NC(=O)c3ccccc3)c(C(=O)O)c2)cc1C(=O)O)c1ccccc1 | inhibition [6]: inactive; IC50 [4]: 1.9 µM |

| logD [1] | hepatocyte CLint at 1 µM [2] [µL/min/1e6 cells] | IC50 [3] [µM] | Structure (SMILES) | further results |
| --- | --- | --- | --- | --- |
| 0.8 | < 1.7 |  | COc1cc(N(CC(C)(C)F)c2cc(Cl)c(F)cc2F)cnc1C(=O)[C@H]1C[C@@H]1C(=O)O |  |
| 1.3 | 4.9 |  | COc1cc(N(CC(C)C)c2cc(Cl)c(F)cc2F)cnc1C(=O)[C@H]1C[C@@H]1C(=O)O |  |
| 0.7 | 3.1 | 20 | CCN(c1cccc(C(F)(F)F)c1)c1cnc(C(=O)[C@H]2C[C@@H]2C(=O)O)c(OC)c1 |  |
| 1.6 | 4.3 |  | COc1cc(N(CC2CC2)c2ccc(Cl)c(Cl)c2)cnc1C(=O)[C@H]1C[C@@H]1C(=O)O |  |
|  |  |  | COc1ccccc1C(=O)Nc1ccc(C(=O)c2ccc(N(C)c3ccc(Cl)cc3)cn2)cc1C(=O)O | IC50 [4]: 0.035 µM |
| 1.4 | 3.9 |  | COc1cc(N(CC(C)C)c2cc(C(F)(F)F)ccc2F)cnc1C(=O)[C@H]1C[C@@H]1C(=O)O | IC50 [5]: 0.0068 µM |
| 1.4 | 3.8 | 2.9 | CCN(c1cnc(C(=O)[C@H]2C[C@@H]2C(=O)O)c(OC)c1)c1ccc(F)c2ccccc12 |  |
| 0 |  | > 100 | COc1cc(N(CC(C)(C)O)c2cccc(C(F)(F)F)c2)cnc1C(=O)[C@H]1C[C@@H]1C(=O)O |  |
| 1.1 | 1.3 |  | COc1cc(N(CC2CC2)c2cc(Cl)ccc2F)cnc1C(=O)[C@H]1C[C@@H]1C(=O)O |  |
| 1.7 | 28 |  | COc1cc(N(CC2CC2)c2ccc(Cl)cc2)cnc1C(=O)c1cccc(C(=O)O)c1 |  |
|  |  |  | CC(c1cc2ccccc2s1)N(O)C(N)=O (stereo not given) | inhibition [7]: Active; inhibition [8]: Active |
| 1.2 | 1.5 |  | COc1nc(N(CC(C)(C)F)c2cc(C(F)(F)F)ccc2F)cnc1C(=O)[C@H]1C[C@@H]1C(=O)O | IC50 [5]: 0.0078 µM |
| 1.9 | 4.2 |  | COc1cc(N(Cc2ccc(F)cc2)c2cccc(C(F)(F)F)c2)cnc1C(=O)[C@H]1C[C@@H]1C(=O)O |  |
| 2.8 | 6.8 |  | COc1cc(N(CC2CC2)c2ccc(Cl)c3ccccc23)cnc1C(=O)CCCC(=O)O |  |
| 1.2 | < 1.1 | 8.2 | COc1cc(N(CC2CC2)c2cc(C(F)(F)F)ccc2F)cnc1C(=O)[C@H]1C[C@@H]1C(=O)O |  |
| 1.8 | 3 |  | COc1nc(N(CC(C)C)c2cc(Cl)c(F)cc2F)cnc1C(=O)[C@H]1C[C@@H]1C(=O)O | IC50 [4]: 0.00028 µM; IC50 [5]: 0.0041 µM |
